Values joined by “and” are separate entries in the source; they are usually repeats but may differ in a detail not shown here. Equal values may be shown once. Read-outs that look alike come from different tables or passages of the source.

Experiment [1] deals with PPARα. Kind of experiment: qRT-PCR mRNA expression of ERR downstream gene PPARα. The class given is cell-based. The following applies: ERR reporter cells, vs GAPDH, DMSO = 0%. Background: Real-time PCR tracks product formation cycle by cycle.
Experimental: Total RNA was isolated from treated ERR reporter cells using an RNeasy Mini Kit (Qiagen, Germantown, MD, USA), homogenized using a QIAshredder (Qiagen), and reverse transcribed with a High-Capacity RNA-to-cDNA™ Kit (ThermoFisher Scientific, Inc.) following the manufacturers’ instructions. Expression of ERRα, COX8α, IDH3α, PPARα, COX4I1, and cytochrome c genes was normalized against GAPDH. All primers were purchased from ThermoFisher Scientific, Inc. Real-time PCR assays were performed in 384-well plates on a QuantStudio 5 (Applied Biosystems, Foster City, CA, USA) with TaqMan™ Gene Expression Master Mix (ThermoFisher Scientific, Inc.). Induction values were calculated using the equation: Fold = 2^ΔΔCt, where ΔCt represents the differences in cycle threshold numbers between each of the target genes and GAPDH, and ΔΔCt represents the relative change in these differences between control and treatment groups. Experimental data are presented as a mean of triplicate determinations ± SD.
For experiment [2], the system named is cytochrome c. Kind of experiment: qRT-PCR mRNA expression of ERR downstream gene cytochrome c. The note with it: ERR reporter cells, vs GAPDH, DMSO = 0%. In kind it is cell-based. The method in brief:
(§1)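 Total RNA from compound-treated ERR reporter cells was reverse transcribed and analysed by TaqMan real-time PCR. Expression normalized to GAPDH, with fold induction versus control calculated as 2^ΔΔCt. Values are means of triplicates ± SD, t-test.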

Experiment [3] deals with Nrf2/antioxidant response element (ARE). Kind of experiment: Nrf2/ARE-HepG2 β-lactamase reporter agonist assay. The class given is cell-based. The note with it: agonist mode, heatmap outcome.
Experimental: After the assay plates were incubated at 37 °C for 5–6 h, 23 nL of compounds dissolved in DMSO or positive controls were transferred to the assay plates via a Wako Pintool station (Wako). Except for ARE and p53, all other assays received 1 µL/well agonist (10 nM R1881 for AR; 0.5 and 5 nM β-estradiol for ERα and ERβ respectively; 300 µM CDCA for FXR; 50 nM Rosiglitazone for PPARγ; and 5 nM R5020 for PR) or assay medium using a Flying Reagent Dispenser (FRD). The assay plates were incubated for 16 h (AR, Nrf2/ARE, ERβ, FXR, p53, and PR), 17 h (PPARγ), or 18 h (ERα) at 37 °C, and 1 µL/well LiveBLAzer™ FRET-B/G CCF4-AM substrate (ThermoFisher Scientific, Inc.) detection mix was added using an FRD and the plates were incubated at room temperature for 2 h. […] Data were expressed as the ratio of 460/530 nm emission values.
The target of experiment [4] is T1, estrogen-related receptor alpha (ERRα) (Homo sapiens, UniProt P11474).
T1 sequence (P11474 1-423): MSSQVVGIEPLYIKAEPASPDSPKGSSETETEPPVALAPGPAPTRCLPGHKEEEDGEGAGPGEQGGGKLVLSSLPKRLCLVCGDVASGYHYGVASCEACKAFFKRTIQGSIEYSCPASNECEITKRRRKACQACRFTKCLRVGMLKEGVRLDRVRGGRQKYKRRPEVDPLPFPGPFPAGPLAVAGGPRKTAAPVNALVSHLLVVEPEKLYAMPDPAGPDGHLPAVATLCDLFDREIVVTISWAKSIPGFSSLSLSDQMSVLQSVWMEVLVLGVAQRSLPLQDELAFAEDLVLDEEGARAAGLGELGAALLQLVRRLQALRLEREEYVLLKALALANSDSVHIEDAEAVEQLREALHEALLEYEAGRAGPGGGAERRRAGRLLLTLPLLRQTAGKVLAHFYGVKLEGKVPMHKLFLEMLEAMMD
Nature of the experiment: ERR reporter (luciferase) antagonist qHTS assay, ERR-HEK293. The following applies: for ERR-HEK293 Follow-Up Efficacy: follow-up screen; for ERR-HEK293 Follow-Up Efficacy / ERR-HEK293 Primary Efficacy: relative to XCT790 = −100%; for ERR-HEK293 Primary Efficacy: primary qHTS, DMSO = 0%. (In general: In qHTS, concentration-response curves come from the screen itself.)

The subject of experiment [5] is COX8α. Nature of the experiment: qRT-PCR mRNA expression of ERR downstream gene COX8α. The class given is cell-based. The note with it: ERR reporter cells, vs GAPDH, DMSO = 0%. The procedure, abridged: as §1
Experiment [6] concerns PGC/ERR reporter HEK293 cells. Nature of the experiment: CellTiter-Fluor cell viability assay multiplexed with PGC/ERR reporter assay. In kind it is cell-based. The following applies: for EC50: Homo sapiens. (In general: A reporter such as luciferase makes a cellular process visible.)
In experiment [7] the test system is ERR reporter HEK293 cells. Nature of the experiment: CellTiter-Fluor cell viability assay multiplexed with ERR reporter assay. In kind it is cell-based. The procedure, abridged:
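ERR or PGC/ERR reporter HEK293 cells (2500/well) were plated 6 h before compound, then incubated 18 h at 37 °C, followed by ONE-Glo luciferase read after 30 min. CellTiter-Fluor was multiplexed as a cytotoxicity counter screen, in triplicate. IC50 and efficacy came from four-parameter Hill fits of pattern-corrected qHTS data.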

Experiment [8] deals with IDH3α. Kind of experiment: qRT-PCR mRNA expression of ERR downstream gene IDH3α. The class given is cell-based. The note with it: ERR reporter cells, vs GAPDH, DMSO = 0%. The procedure, abridged:
as §1

The target in experiment [9] is T2, ERRα with PGC-1α (PGC/ERR pathway) (Homo sapiens, UniProt P11474).
T2 sequence (P11474 1-423): T1 sequence (P11474 1-423)
Kind of experiment: PGC/ERR reporter (luciferase) qHTS assay, PGC/ERR-HEK293. The following applies: for EC50: mean ± SD, triplicate; for PGC/ERR-HEK293 Follow-Up Efficacy: follow-up screen; for PGC/ERR-HEK293 Follow-Up Efficacy / PGC/ERR-HEK293 Primary Efficacy: negative = antagonism, positive = agonism; for activity in the ERR/PGC assay: in words; for PGC/ERR-HEK293 Primary Efficacy: primary qHTS.

For experiment [10], the system named is COX4I1. Nature of the experiment: qRT-PCR mRNA expression of ERR downstream gene COX4I1. In kind it is cell-based. The following applies: ERR reporter cells, vs GAPDH, DMSO = 0%. As for the experimental part: Total RNA was isolated from treated ERR reporter cells using an RNeasy Mini Kit (Qiagen, Germantown, MD, USA), homogenized using a QIAshredder (Qiagen), and reverse transcribed with a High-Capacity RNA-to-cDNA™ Kit (ThermoFisher Scientific, Inc.) following the manufacturers’ instructions. Expression of ERRα, COX8α, IDH3α, PPARα, COX4I1, and cytochrome c genes was normalized against GAPDH. All primers were purchased from ThermoFisher Scientific, Inc. Real-time PCR assays were performed in 384-well plates on a QuantStudio 5 (Applied Biosystems, Foster City, CA, USA) with TaqMan™ Gene Expression Master Mix (ThermoFisher Scientific, Inc.). Induction values were calculated using the equation: Fold = 2^ΔΔCt, where ΔCt represents the differences in cycle threshold numbers between each of the target genes and GAPDH, and ΔΔCt represents the relative change in these differences between control and treatment groups. […]

The mark [11] stands for this setting: ERR-HEK293 Follow-Up EC50, follow-up (confirmation) screen, mean ± SD, triplicate.
The mark [12] stands for this setting: ERR-HEK293 Primary EC50, primary qHTS, 18 h, 15 concentrations, mean ± SD, triplicate.
[13] abbreviates: HEK293, follow-up screen, read-out: PGC/ERR-HEK293 Follow-Up Viability EC50 (converted).
Setting [14] is: HEK293, primary qHTS, read-out: PGC/ERR-HEK293 Primary Viability EC50 (converted).
Setting [15] is: Homo sapiens, HEK293, follow-up screen, viability, read-out: ERR-HEK293 Follow-Up Viability EC50 (converted).
Setting [16] is: Homo sapiens, HEK293, primary qHTS, viability counter screen, read-out: ERR-HEK293 Primary Viability EC50 (converted).
[17] abbreviates: PGC/ERR-HEK293 Follow-Up EC50, follow-up screen.
Setting [18] is: PGC/ERR-HEK293 Primary EC50, primary qHTS, 18 h.

As to `CC(C)C[C@H](NC(=O)[C@H](CCc1ccccc1)NC(=O)CN1CCOCC1)C(=O)N[C@@H](Cc1ccccc1)C(=O)N[C@@H](CC(C)C)C(=O)[C@@]1(C)CO1` [Carfilzomib], the “Percent inhibition of mRNA gene expression, PPARα” value (from here on “Percent inhibition … PPARα”) in experiment [1] (60 nM) is 7.39 ± 4.61%. In experiment [2] (60 nM), the “Percent inhibition of mRNA gene expression, Cytochrome C” value (“Percent inhibition … Cytochrome C” for short) was 44.2% and 44.2 ± 0.70%. For the same compound, in [3], the “activity in the Nrf2-ARE assay” value is reported as “active agonists”. Further, the EC50 in experiment [4] (setting [11]) was 61.7 ± 7.86 nM; in [4] (setting [12]) it was 55.2 ± 3.74 nM; in [4] (potency, ERR antagonist assay, primary screen) it was 55 nM; in experiment [6] (setting [13]), 471 nM; in [6] (setting [14]) it was 1360 nM; in experiment [7] (setting [15]), 274 nM. In addition, the EC50 in [7] (setting [16]) is 178 nM; in experiment [9] (setting [17]) it was 189 ± 39.6 nM; in [9] (setting [18]) it was 61.5 ± 19.8 nM. Moreover, the “ERR-HEK293 Follow-Up Efficacy” value in [4] was −126 ± 10.9%. The “ERR-HEK293 Primary Efficacy” value in experiment [4] is −107% and −107 ± 2.77%. Moreover, the “Percent inhibition of mRNA gene expression, COX8α” value (“Percent inhibition … COX8α” below) in experiment [5] (60 nM) is 39.6% and 39.6 ± 1.81%. Besides, the “Percent inhibition of mRNA gene expression, IDH3α” value (“Percent inhibition … IDH3α” below) in [8] (60 nM) is given as 1.73 ± 0.76%. Moreover, the “PGC/ERR-HEK293 Follow-Up Efficacy” value in experiment [9] is listed as −150 ± 8.02%. For the same compound, the “activity in the ERR/PGC assay” value in experiment [9] is “antagonism”. Besides, in experiment [9], the “PGC/ERR-HEK293 Primary Efficacy” value was −121 ± 7.36%. For the same compound, in experiment [10] (60 nM), the “Percent inhibition of mRNA gene expression, COX4I1” value (“Percent inhibition … COX4I1” below) was 37.8 ± 5.12%.

For `COc1cc(/C=C(\C#N)C(=O)Nc2nnc(C(F)(F)F)s2)ccc1OCc1ccc(C(F)(F)F)cc1C(F)(F)F` [XCT790], in experiment [1] (12 µM), the “Percent inhibition … PPARα” value was found to be 16.0 ± 1.70%. Further, the “Percent inhibition … Cytochrome C” value in experiment [2] (12 µM) was determined as 60.8 ± 2.16%. In addition, the “Percent inhibition … COX8α” value in [5] (12 µM, mean ± S.D.) is given as 65.0 ± 8.41%. The “Percent inhibition … IDH3α” value in experiment [8] (12 µM) amounted to 42.6 ± 6.59%. Moreover, in [10] (12 µM), the “Percent inhibition … COX4I1” value worked out at 46.0 ± 2.16%.

For `CC(C)C[C@H](NC(=O)[C@H](Cc1ccccc1)NC(=O)c1cnccn1)B(O)O` [Bortezomib], the “Percent inhibition … PPARα” value in experiment [1] (20 µM) turned out to be 14.0 ± 5.17%. Moreover, in [2] (20 µM), the “Percent inhibition … Cytochrome C” value was 48.3% and 48.3 ± 1.92%. For the same compound, in experiment [3], the “activity in the Nrf2-ARE assay” value is “active agonists”. Moreover, the EC50 is 16.7 ± 6.08 nM in experiment [4] (setting [11]); 17 ± 7.81 nM in experiment [4] (setting [12]); 64.3 nM in [6] (setting [13]); 62.8 nM in [6] (setting [14]); 78 nM in experiment [7] (setting [15]); 65.6 nM in [7] (setting [16]). Moreover, the figures for the EC50 in experiment [9] (setting [17]) and in [9] (setting [18]) were 9.62 ± 4.52 nM and 16.9 ± 5.54 nM, respectively. The “ERR-HEK293 Follow-Up Efficacy” value in [4] is recorded as −125 ± 11.0%. In addition, the IC50 – broadly, the midpoint of a concentration-inhibition curve – in [7] (Homo sapiens, HEK293, primary screen, concurrent with ERR antagonist assay) is roughly 66 nM. Also, the “Percent inhibition … IDH3α” value in [8] (20 µM) is 17.6% and 17.6 ± 4.66%. In experiment [9], the “PGC/ERR-HEK293 Follow-Up Efficacy” value is −116 ± 12.7%. Further, in [9], the “activity in the ERR/PGC assay” value is listed as “antagonism”. Further, in experiment [9], the “PGC/ERR-HEK293 Primary Efficacy” value is −92.2 ± 11.8%. Moreover, the “Percent inhibition … COX4I1” value in [10] (20 µM) turned out to be 35.3 ± 3.49%.

Turning to `Cc1nc(N)nc(N)c1-c1ccc(Cl)c(Cl)c1` [Methodichlorophen], in experiment [2] (2 µM), the “Percent inhibition … Cytochrome C” value was 47.6% and 47.6 ± 7.45%. For the same compound, the “activity in the Nrf2-ARE assay” value in [3] is on record as “active agonists”. The EC50 was found to be 1600 ± 104 nM in [4] (setting [11]), 1060 ± 122 nM in experiment [4] (setting [12]), 1570 ± 354 nM in [9] (setting [17]) and 845 ± 97.1 nM in [9] (setting [18]). Moreover, the “ERR-HEK293 Follow-Up Efficacy” value in [4] is reported as −104 ± 7.68%. The “ERR-HEK293 Primary Efficacy” value in experiment [4] is given as −90.9 ± 4.94%; in [4] (listed as methodichlorophen), −90.9%. Also, the “Percent inhibition … COX8α” value in [5] (2 µM) came out at 17.1 ± 29.5%. Besides, in experiment [6] (follow-up screen), the “PGC/ERR-HEK293 Follow-Up Viability EC50” value is “Inactive”. Also, the “PGC/ERR-HEK293 Primary Viability EC50” value in experiment [6] (primary qHTS) was “Inactive”. Also, in experiment [7] (follow-up screen, viability), the “ERR-HEK293 Follow-Up Viability EC50” value is “Inactive”. Further, the “ERR-HEK293 Primary Viability EC50” value in experiment [7] (primary qHTS, viability counter screen) is “Inactive”. In addition, in experiment [8] (2 µM), the “Percent inhibition … IDH3α” value was 50.8% and 50.8 ± 8.69%. For the same compound, the “PGC/ERR-HEK293 Follow-Up Efficacy” value in [9] was −61.5 ± 12.6%. For the same compound, the “activity in the ERR/PGC assay” value in [9] is reported as “antagonism”. Further, in experiment [9], the “PGC/ERR-HEK293 Primary Efficacy” value is −68.4 ± 7.64%. Moreover, the “Percent inhibition … COX4I1” value in experiment [10] (2 µM) was 12.5% and 12.5 ± 2.60%.

For the origin of these results see publication PMC6429183, “Identification of Compounds That Inhibit Estrogen-Related Receptor Alpha Signaling Using High-Throughput Screening Assays” (Molecules, 2019).
